# Earlier results in patent US20230000073A1, “A COMPOSITION FOR ACTIVATING PLANT'S NATURAL DEFENSE MECHANISMS TO EXTEND THE SHELF LIFE AND METHODS THEREOF” (GREENPOD LABS PRIVATE LIMITED, priority 2019, published 2023).
# Entries after “also recorded” stand apart in the source; their conditions may differ. Read-outs that look alike come from different tables or passages of the source.
smiles,measurement,setting,value
"O=C(O)c1ccccc1O [SA, 2-hydroxybenzoic acid]",Reported results (effects of SA),Fresh-cut Chestnut,"Delayed discoloration, maintained edible quality"
same,Reported results (effects of SA),Watermelon,"Increase in GPX, APX, CAT, SOD & GR activity,"
same,Reported results (effects of SA),Sweet cherry,direct antifungal activity
same,Reported results (effects of SA),Tomato,"Development of red color, regulation of ACS genes expression"
same,Reported results (effects of SA),Strawberry,"Decay, Ripenings, weight loss reduction"
same,Reported results (effects of SA),Orange,"SOD, GR, APX & DHAR activity & ASA/DHASA"
same,Reported results (effects of SA),Kiwifruit,"Inhibition of ethylene production, ripening &; also recorded: decay control"
same,Reported results (effects of SA),Apple,"Decreased ethylene, LOX activity, MDA content, DI,"
same,Reported results (effects of SA),Apple; combined with microbial antagonist,Enchaned the biological efficacy of antagonist
same,Reported results (effects of SA),Banana,"Decrease in fruit softening pulp/peel ratio, reducing sugar content,"
